Assay results reported in ChEMBL document CHEMBL1154825, “Schweinfurthins I and J from Macaranga schweinfurthii” (2010).

How the values were obtained:
Assay type in all cases: functional
[1] = system: SF-539; experiment: Growth inhibition of human SF539 cells
[2] = system: MCF7; experiment: Growth inhibition of human MCF7 cells
[3] = system: A549; experiment: Growth inhibition of human A549 cells
[4] = system: NCI-H460; experiment: Growth inhibition of human NCI-H460 cells
[5] = system: KM12; experiment: Growth inhibition of human KM12 cells
[6] = system: SN12C; experiment: Growth inhibition of human SN12C cells
[7] = system: LOX IMVI; experiment: Growth inhibition of human LOXIMVI cells
[8] = system: BT-549; experiment: Growth inhibition of human BT549 cells
[9] = system: MOLT-4; experiment: Growth inhibition of human MOLT4 cells
[10] = system: NCI-H522; experiment: Growth inhibition of human NCI-H522 cells
[11] = system: HL-60(TB); experiment: Growth inhibition of human HL-60(TB) cells
[12] = system: NCI-H23; experiment: Growth inhibition of human NCI-H23 cells
[13] = system: MDA-MB-231; experiment: Growth inhibition of human MDA-MB-231 cells
[14] = system: T47D; experiment: Growth inhibition of human T47D cells
[15] = system: SK-OV-3; experiment: Growth inhibition of human SKOV3 cells
[16] = system: M14; experiment: Growth inhibition of human M14 cells
[17] = system: HCC 2998; experiment: Growth inhibition of human HCC2998 cells
[18] = system: NCI-H226; experiment: Growth inhibition of human NCI-H226 cells
[19] = system: HCT-15; experiment: Growth inhibition of human HCT15 cells
[20] = system: SF-295; experiment: Growth inhibition of human SF295 cells
[21] = system: HOP-92; experiment: Growth inhibition of human HOP92 cells
[22] = Growth inhibition of human Hs 578T cells
[23] = system: UACC-257; experiment: Growth inhibition of human UACC257 cells
[24] = system: OVCAR-3; experiment: Growth inhibition of human OVCAR-3 cells
[25] = system: ACHN; experiment: Growth inhibition of human ACHN cells
[26] = system: TK-10; experiment: Growth inhibition of human TK10 cells
[27] = system: SR; experiment: Growth inhibition of human SR cells
[28] = system: MDA-MB-468; experiment: Growth inhibition of human MDA-MB-468 cells
[29] = system: SK-MEL-28; experiment: Growth inhibition of human SK-MEL-28 cells
[30] = system: NCI/ADR-RES; experiment: Growth inhibition of human NCI/ADR-RES cells
[31] = system: U-251; experiment: Growth inhibition of human U251 cells
[32] = system: A498; experiment: Growth inhibition of human A498 cells
[33] = system: SNB-19; experiment: Growth inhibition of human SNB19 cells
[34] = system: OVCAR-5; experiment: Growth inhibition of human OVCAR5 cells
[35] = system: NCI-H322M; experiment: Growth inhibition of human NCI-H322M cells
[36] = system: SW-620; experiment: Growth inhibition of human SW620 cells
[37] = system: 786-0; experiment: Growth inhibition of human 786-0 cells
[38] = system: RXF 393; experiment: Growth inhibition of human […] cells
[39] = system: SNB-75; experiment: Growth inhibition of human SNB75 cells
[40] = system: CCRF-CEM; experiment: Growth inhibition of human CCRF-CEM cells
[41] = system: HCT-116; experiment: Growth inhibition of human HCT116 cells
[42] = system: CAKI-1; experiment: Growth inhibition of human Caki1 cells
[43] = system: K562; experiment: Growth inhibition of human K562 cells
[44] = system: IGROV-1; experiment: Growth inhibition of human IGROV1 cells
[45] = read-out: pLC50 (the source's name) (converted)

Molecule `CC(C)=CCC/C(C)=C/Cc1cc(/C=C/c2cc(O)cc(O)c2)ccc1O` [SCHWEINFURTHIN I] has a GI50 [1] of 5.13 µM, an LC50 [1] of 47.9 µM and a TGI ([1]; read-out: pTGI (converted)) of 17.8 µM. For the same molecule, the GI50 [2] was 10 µM, the LC50 [2] was 63.1 µM and the TGI ([2]; read-out: pTGI (converted)) was 25.1 µM. It also gave a GI50 [3] of 10.5 µM, an LC50 [3] of 66.1 µM and a TGI ([3]; read-out: pTGI (converted)) of 26.3 µM. For the same molecule, the GI50 [4] was 10.2 µM, the LC50 [4] was 85.1 µM and the TGI ([4]; read-out: pTGI (converted)) was 29.5 µM. The GI50 [5] was 7.08 µM, the LC50 [5] was 49 µM and the TGI ([5]; read-out: pTGI (converted)) was 20.4 µM. For the same molecule, the GI50 [6] was 13.5 µM, the CC50 [6, 45] was 61.7 µM and the TGI ([6]; read-out: pTGI (converted)) was 28.8 µM. For the same molecule, the GI50 [7] was 7.24 µM, the CC50 [7, 45] was 50.1 µM and the TGI ([7]; read-out: pTGI (converted)) was 20.9 µM. It also gave a GI50 [8] of 7.41 µM, an LC50 [8] of 45.7 µM and a TGI ([8]; read-out: pTGI (converted)) of 20 µM. The GI50 [9] was 7.24 µM, the LC50 [9] was > 100 µM and the TGI ([9]; read-out: pTGI (converted)) was 30.2 µM. It also gave a GI50 [10] of 11.2 µM, an LC50 [10] of 72.4 µM and a TGI ([10]; read-out: pTGI (converted)) of 28.2 µM. For the same molecule, the GI50 [11] was 5.37 µM, the CC50 [11, 45] was 77.6 µM and the TGI ([11]; read-out: pTGI (converted)) was 23.4 µM. The GI50 [12] was 11.7 µM, the LC50 [12] was 61.7 µM and the TGI ([12]; read-out: pTGI (converted)) was 26.9 µM. The GI50 [13] was 10.7 µM, the LC50 [13] was 63.1 µM and the TGI ([13]; read-out: pTGI (converted)) was 26.3 µM. The GI50 [14] was 10.2 µM, the LC50 [14] was 81.3 µM and the TGI ([14]; read-out: pTGI (converted)) was 28.8 µM. The GI50 [15] was 15.5 µM, the CC50 [15, 45] was 55 µM and the TGI ([15]; read-out: pTGI (converted)) was 29.5 µM. The GI50 [16] was 12.9 µM, the CC50 [16, 45] was 53.7 µM and the TGI ([16]; read-out: pTGI (converted)) was 26.3 µM. It also gave a GI50 [17] of 15.5 µM, an LC50 [17] of 58.9 µM and a TGI ([17]; read-out: pTGI (converted)) of 30.2 µM. It also gave a GI50 [18] of 16.6 µM, an LC50 [18] of 74.1 µM and a TGI ([18]; read-out: pTGI (converted)) of 35.5 µM. The GI50 [19] was 15.8 µM, the LC50 (50% lethal concentration) [19] was > 100 µM and the TGI ([19]; read-out: pTGI (converted)) was 58.9 µM. The GI50 [20] was 0.372 µM, the LC50 [20] was 51.3 µM and the TGI ([20]; read-out: pTGI (converted)) was 15.8 µM. The GI50 [21] was 12.9 µM, the CC50 [21, 45] was 77.6 µM and the TGI ([21]; read-out: pTGI (converted)) was 31.6 µM. For the same molecule, the GI50 [22] was 4.07 µM, the LC50 [22] was > 100 µM and the TGI ([22]; read-out: pTGI (converted)) was 26.3 µM. For the same molecule, the GI50 [23] was 14.5 µM, the LC50 [23] was 60.3 µM and the TGI ([23]; read-out: pTGI (converted)) was 29.5 µM. For the same molecule, the GI50 [24] was 12.3 µM, the LC50 (concentration killing 50% of cells) [24] was 50.1 µM and the TGI ([24]; read-out: pTGI (converted)) was 25.1 µM. It also gave a GI50 [25] of 10 µM, a CC50 [25, 45] of 49 µM and a TGI ([25]; read-out: pTGI (converted)) of 22.4 µM. It also gave a GI50 [26] of 14.8 µM, an LC50 [26] of 56.2 µM and a TGI ([26]; read-out: pTGI (converted)) of 28.8 µM. The GI50 [27] was 11.2 µM, the LC50 [27] was > 100 µM and the TGI ([27]; read-out: pTGI (converted)) was 43.7 µM. For the same molecule, the GI50 [28] was 9.12 µM, the CC50 [28, 45] was 53.7 µM and the TGI ([28]; read-out: pTGI (converted)) was 22.9 µM. It also gave a GI50 [29] of 10.7 µM, a CC50 [29, 45] of 50.1 µM and a TGI ([29]; read-out: pTGI (converted)) of 23.4 µM. For the same molecule, the GI50 [30] was 9.33 µM, the CC50 [30, 45] was 58.9 µM and the TGI ([30]; read-out: pTGI (converted)) was 24 µM. For the same molecule, the GI50 [31] was 5.5 µM, the LC50 [31] was 51.3 µM and the TGI ([31]; read-out: pTGI (converted)) was 20 µM. It also gave a GI50 [32] of 5.01 µM, an LC50 [32] of 47.9 µM and a TGI ([32]; read-out: pTGI (converted)) of 20.4 µM. For the same molecule, the GI50 [33] was 12.6 µM, the LC50 [33] was 56.2 µM and the TGI ([33]; read-out: pTGI (converted)) was 26.9 µM. For the same molecule, the GI50 [34] was 17.4 µM, the LC50 [34] was 72.4 µM and the TGI ([34]; read-out: pTGI (converted)) was 35.5 µM. The GI50 [35] was 11.5 µM, the LC50 [35] was 51.3 µM and the TGI ([35]; read-out: pTGI (converted)) was 24.5 µM. For the same molecule, the GI50 [36] was 15.8 µM, the LC50 [36] was > 100 µM and the TGI ([36]; read-out: pTGI (converted)) was 43.7 µM. It also gave a GI50 [37] of 3.55 µM, a CC50 [37, 45] of 37.2 µM and a TGI ([37]; read-out: pTGI (converted)) of 12 µM. The GI50 [38] was 1.78 µM, the CC50 [38, 45] was 7.76 µM and the TGI ([38]; read-out: pTGI (converted)) was 3.72 µM. It also gave a GI50 [39] of 11.2 µM, an LC50 [39] of 52.5 µM and a TGI ([39]; read-out: pTGI (converted)) of 24.5 µM. It also gave a GI50 [40] of 5.37 µM, an LC50 [40] of 95.5 µM and a TGI ([40]; read-out: pTGI (converted)) of 25.7 µM. The GI50 [41] was 11 µM, the CC50 [41, 45] was 50.1 µM and the TGI ([41]; read-out: pTGI (converted)) was 23.4 µM. For the same molecule, the GI50 [42] was 5.62 µM, the CC50 [42, 45] was 43.7 µM and the TGI ([42]; read-out: pTGI (converted)) was 18.6 µM. For the same molecule, the GI50 [43] was 5.01 µM, the LC50 [43] was 72.4 µM and the TGI ([43]; read-out: pTGI (converted)) was 22.4 µM. It also gave a GI50 [44] of 11.7 µM, a CC50 [44, 45] of 55 µM and a TGI ([44]; read-out: pTGI (converted)) of 25.1 µM.
